In patent publication US5968817A, “DNA encoding serotonin receptors” (priority 1993, dated 1999):
Read-outs that look alike come from different tables or passages of the source.

Legend:
[1] = molecular target: T1, MR77 serotonin receptor (5-HT1E-Like) (Rattus norvegicus, UniProt P30940); test: [125I]-LSD competition binding to membranes of CosM6 cells expressing MR77
T1 construct: expressed in transfected cells; host or cells: CosM6 (subclone of COS-7), transient, vector pCMV4
T1 sequence (P30940 1-366): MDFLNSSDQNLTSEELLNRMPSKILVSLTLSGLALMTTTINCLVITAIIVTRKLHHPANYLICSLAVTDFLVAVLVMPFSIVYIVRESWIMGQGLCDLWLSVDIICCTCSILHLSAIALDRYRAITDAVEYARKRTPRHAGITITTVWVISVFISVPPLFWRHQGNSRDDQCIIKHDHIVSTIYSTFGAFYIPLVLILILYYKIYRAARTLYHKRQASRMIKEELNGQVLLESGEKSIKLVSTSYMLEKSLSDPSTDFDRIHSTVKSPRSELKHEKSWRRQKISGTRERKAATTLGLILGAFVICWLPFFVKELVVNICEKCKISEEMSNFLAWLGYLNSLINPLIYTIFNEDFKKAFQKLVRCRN

[2] = test system: suprachiasmatic nucleus (SCN) neuronal activity; test: Effects of serotonergic agents on circadian rhythm of neuronal activity in suprachiasmatic nucleus slices; conditions: for effect of antagonist on the 8-OH-DPAT-dependent phase shift: antagonist 15 min before, during and 15 min after 1 hour 8-OH-DPAT
Procedure: This was followed by the normal perfusion medium. Horizontal bars: time of lights-off in donor colony; vertical bars: time of treatment; dotted line: mean time of peak in untreated slices.
The effects of serotinergic agents on the neuronal activity as measured against circadian time in the suprachiasmatic nucleus (SCN) were measured. […] This was followed by the normal perfusion medium.

[3] = molecular target: T2, REC20 serotonin receptor (5-HT6) (Rattus norvegicus, UniProt P32305); test: [125I]-LSD competition binding to membranes of CosM6 cells expressing REC20
T2 construct: encodes a putative protein of 435 amino acids; expressed in transfected cells; host or cells: CosM6 (subclone of COS-7), transient, vector pCMV4

[4] = molecular target: T3, MR22 serotonin receptor (5-HT5β) (Rattus norvegicus, UniProt P35365); test: [125I]-LSD competition binding to membranes of CosM6 cells expressing MR22
T3 construct: contains an open reading frame (ORF) encoding 370 amino acids; expressed in transfected cells; host or cells: CosM6 (subclone of COS-7), transient, vector pCMV4

[5] = molecular target: T4, REC17 serotonin receptor (5-HT5α) (Rattus norvegicus, UniProt P35364); test: [125I]-LSD competition binding to membranes of CosM6 cells expressing REC17
T4 construct: contains an ORF encoding 357 amino acids; expressed in transfected cells; host or cells: CosM6 (subclone of COS-7), transient, vector pCMV4

[6] = CosM6 membranes, 1 nM [125I]-LSD, 60 min 37° C., read-out: IC50 for competition with 125I-LSD, Rec20
[7] = CosM6 membranes, 1 nM [125I]-LSD, 60 min 37° C., read-out: IC50 for competition with 125I-LSD, MR77

T2 sequence (P32305 1-435): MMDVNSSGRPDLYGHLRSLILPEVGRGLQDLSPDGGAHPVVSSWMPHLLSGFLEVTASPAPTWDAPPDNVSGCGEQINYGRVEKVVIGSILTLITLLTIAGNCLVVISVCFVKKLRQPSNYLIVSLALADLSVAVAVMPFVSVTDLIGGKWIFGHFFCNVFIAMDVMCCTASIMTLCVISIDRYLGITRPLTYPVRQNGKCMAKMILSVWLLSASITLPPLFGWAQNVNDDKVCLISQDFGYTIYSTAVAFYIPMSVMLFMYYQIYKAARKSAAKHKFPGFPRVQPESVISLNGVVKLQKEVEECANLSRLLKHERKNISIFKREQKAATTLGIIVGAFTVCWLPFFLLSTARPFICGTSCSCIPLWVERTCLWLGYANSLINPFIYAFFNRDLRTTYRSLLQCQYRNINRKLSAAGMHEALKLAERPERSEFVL
T4 sequence (P35364 whole entry): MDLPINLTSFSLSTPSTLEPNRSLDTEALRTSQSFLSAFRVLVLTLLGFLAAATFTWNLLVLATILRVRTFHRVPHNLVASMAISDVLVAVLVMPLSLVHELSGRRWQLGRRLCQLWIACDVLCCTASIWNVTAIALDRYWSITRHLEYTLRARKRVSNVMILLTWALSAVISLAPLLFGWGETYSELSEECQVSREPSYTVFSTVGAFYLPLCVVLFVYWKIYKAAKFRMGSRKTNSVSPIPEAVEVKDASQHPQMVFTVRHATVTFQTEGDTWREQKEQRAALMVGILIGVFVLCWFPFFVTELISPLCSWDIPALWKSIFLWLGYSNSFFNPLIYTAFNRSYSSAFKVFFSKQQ
T3 sequence (P35365 whole entry S4C/P322A): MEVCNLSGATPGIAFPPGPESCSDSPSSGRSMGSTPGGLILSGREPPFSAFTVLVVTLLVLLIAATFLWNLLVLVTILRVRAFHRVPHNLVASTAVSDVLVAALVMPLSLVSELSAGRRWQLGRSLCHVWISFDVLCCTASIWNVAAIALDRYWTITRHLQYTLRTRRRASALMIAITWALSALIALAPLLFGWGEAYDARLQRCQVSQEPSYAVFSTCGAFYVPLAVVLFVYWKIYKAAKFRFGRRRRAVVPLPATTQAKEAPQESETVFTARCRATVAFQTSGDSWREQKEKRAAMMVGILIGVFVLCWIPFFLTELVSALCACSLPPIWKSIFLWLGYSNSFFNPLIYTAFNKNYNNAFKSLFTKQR

Compound | IC50 [3, 6] [nM] | IC50 [4] [nM] | sensitivity of MR22 to the ligand (in words) [4] | IC50 [5] [nM] | IC50 [1, 7] [nM] | further results
CCCN(CCC)C1CCc2cccc(O)c2C1 (stereo not drawn) [Ligand 8-OH-DPAT] | 97 | > 1000 | insensitive | > 1000 | – | sensitivity of radiolabeled LSD binding to MR77 to the ligand (in words) [1]: insenstive; phase advance in the circadian rhythm of spontaneous neuronal activity in the SCN ([2]; slice bath treatment for 1 hour): 2 to 3 h; sensitivity of radiolabeled LSD binding to REC20 to the ligand (in words) [3]: displace; sensitivity of REC17 to the ligand (in words) [5]: insensitive
O=C(c1ccc(F)cc1)C1CCN(CCn2c(=O)[nH]c3ccccc3c2=O)CC1 [ketanserin] | – | – | – | – | – | sensitivity of radiolabeled LSD binding to REC20 to the ligand (in words) [3]: sensitive
COC(=O)[C@@H]1[C@H]2C[C@H]3c4[nH]c5ccccc5c4CCN3C[C@@H]2CC[C@@H]1O [Yohimbine] | – | – | – | – | 570 | –
CNS(=O)(=O)Cc1ccc2[nH]cc(CCN(C)C)c2c1 [Sumatriptan] | > 1000 | > 1000 | insensitive | > 1000 | – | sensitivity of radiolabeled LSD binding to MR77 to the ligand (in words) [1]: sensitive; sensitivity of REC17 to the ligand (in words) [5]: insensitive
CN1C[C@@H](NS(=O)(=O)N(C)C)C[C@@H]2c3cccc4c3c(cn4C)C[C@H]21 [Mesulergine] | 17 | > 1000 | – | > 1000 | > 1000 | –
NCCc1c[nH]c2ccc(O)cc12 [Ligand 5-HT, 5-hydroxytryptamine] | – | – | – | 380 | 70 | –
NCCc1c[nH]c2ccc(C(N)=O)cc12 [Ligand 5-CT, 5-carboxyamidotryptamine] | 0.8 | 285 | sensitive | 20.4 | > 1000 | sensitivity of radiolabeled LSD binding to MR77 to the ligand (in words) [1]: insenstive; sensitivity of radiolabeled LSD binding to REC20 to the ligand (in words) [3]: displace; sensitivity of REC17 to the ligand (in words) [5]: sensitive
CCN(CC)C(=O)[C@@H]1C=C2c3cccc4[nH]c([125I])c(c34)C[C@H]2N(C)C1 [[^125 I]-LSD] | – | – | – | – | – | binding of [125I]-LSD to MR77 broken cell preparations (in words) ([1]; transfected CosM6 cells): saturable binding; binding of [125I]-LSD to REC20 broken cell preparations (in words) ([3]; transfected CosM6 cells): saturable binding; binding of [125I]-LSD to MR22 broken cell preparations (in words) ([4]; transfected CosM6 cells): saturable binding; binding of [125I]-LSD to REC17 broken cell preparations (in words) ([5]; transfected CosM6 cells): saturable binding
CC[C@@H](CO)NC(=O)[C@@H]1C=C2c3cccc4c3c(cn4C)C[C@H]2N(C)C1 [Methysergide] | – | > 1000 | – | 310 | – | IC50 [1]: 14 nM; IC50 [3]: 32 nM
CN1C[C@H](C(=O)N[C@]2(C)O[C@@]3(O)[C@@H]4CCCN4C(=O)[C@H](Cc4ccccc4)N3C2=O)C=C2c3cccc4[nH]cc(c34)C[C@H]21 [Ergotamine] | – | 22 | sensitive | – | – | IC50 [1]: 55 nM; IC50 [3]: 33 nM
CC(C)NCC(O)COc1cccc2[nH]ccc12 (stereo not drawn) [Pindolol] | > 1000 | – | – | – | – | effect of antagonist on the 8-OH-DPAT-dependent phase shift [2]: has no effect
CN1C[C@H](CNC(=O)OCc2ccccc2)C[C@@H]2c3cccc4c3c(cn4C)C[C@H]21 [Metergoline] | 17 | > 1000 | – | > 1000 | 535 | –
CSc1ccc2c(c1)C(N1CCN(C)CC1)Cc1ccccc1S2 (stereo not drawn) [Methiothepin] | – | – | sensitive | 45 | > 1000 | sensitivity of REC17 to the ligand (in words) [5]: sensitive
Cc1nc2sccn2c(=O)c1CCN1CCC(=C(c2ccc(F)cc2)c2ccc(F)cc2)CC1 [Ritanserin] | 60 | – | – | – | – | effect of antagonist on the 8-OH-DPAT-dependent phase shift [2]: blocks
